In ChEMBL document CHEMBL1201862, “PubChem BioAssay data set” (2004):
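Method: 48-hour compound exposure of cells in 96-well plates, five concentrations, linear interpolation of endpoints. At the GI50, growth is halved.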 Activity calls are given as the source filed them. Rule as the data show it: active = GI50 up to about 1.1 µM and inactive = higher.

Experiments:
Experiment in all cases: DTP human tumour cell line panel, 48 h
DLD-1 = test system: DLD-1
DMS-273 = test system: DMS-273
KM-20L2 = test system: KM-20L2
XF498 = test system: XF498
LXFL 529 = test system: LXFL 529
DMS-114 = test system: DMS-114
SNB-78 = test system: SNB-78
RXF 631 = test system: RXF 631
HOP-18 = test system: HOP-18

SMILES	GI50 (DLD-1)	GI50 (DMS-273)	GI50 (KM-20L2)	GI50 (XF498)	GI50 (LXFL 529)	GI50 (DMS-114)	GI50 (SNB-78)	GI50 (RXF 631)	GI50 (HOP-18)
O=C(N/N=C1/C(=O)N(c2ccc(Cl)cc2Cl)C(=O)C(=O)C1c1nc2ccccc2o1)c1ccccc1O (stereo not given)	33 µM (inactive)	> 10 µM (inactive)	> 100 µM (inactive)	20.4 µM (inactive)	37.6 µM (inactive)	26.4 µM (inactive)	–	–	–
NCCSCC(N)C(=O)O (stereo not given)	> 497 µM (inactive)	> 497 µM (inactive)	> 497 µM (inactive)	> 497 µM (inactive)	> 497 µM (inactive)	> 497 µM (inactive)	> 497 µM (inactive)	–	–
COC(=O)[C@H]1CC(=O)C=C2CCCC21 (stereo not given in full)	> 100 µM (inactive)	> 100 µM (inactive)	–	> 100 µM (inactive)	> 100 µM (inactive)	> 100 µM (inactive)	–	> 100 µM (inactive)	–
O=C(N/C(=C\c1ccc(Br)cc1)c1nc2ccccc2s1)c1ccccc1	46.9 µM (inactive)	91.6 µM (inactive)	> 100 µM (inactive)	> 100 µM (inactive)	54.5 µM (inactive)	46.5 µM (inactive)	> 100 µM (inactive)	87.3 µM (inactive)	> 100 µM (inactive)
O=c1/c(=C/c2ccc3c(c2)OCO3)sc2nnc(Cc3ccccc3)n12	> 100 µM (inactive)	> 100 µM (inactive)	> 100 µM (inactive)	–	> 100 µM (inactive)	> 100 µM (inactive)	> 100 µM (inactive)	–	88.1 µM (inactive)
COc1ccccc1-c1cc(=O)c2ccccc2[nH]1	> 100 µM (inactive)	57.9 µM (inactive)	> 100 µM (inactive)	–	> 100 µM (inactive)	–	> 100 µM (inactive)	–	–
O=C(NC(=O)c1c(Cl)nc2sccn12)Nc1ccc(Cl)cc1	> 48.3 µM (inactive)	> 46.3 µM (inactive)	> 100 µM (inactive)	17.9 µM (inactive)	–	> 71.3 µM (inactive)	43.1 µM (inactive)	> 79.4 µM (inactive)	–
C=C1C(=O)OC2(C)C3CCC(C3)C12 (stereo not given)	51.1 µM (inactive)	68.4 µM (inactive)	45.1 µM (inactive)	29.1 µM (inactive)	–	46.6 µM (inactive)	34.4 µM (inactive)	–	> 100 µM (inactive)
COC(=O)C1(C)C=C(Nc2ccccc2)C(=O)N1c1ccccc1 (stereo not given)	> 100 µM (inactive)	–	–	> 100 µM (inactive)	> 100 µM (inactive)	> 100 µM (inactive)	> 100 µM (inactive)	35.5 µM (inactive)	> 100 µM (inactive)
O=C(CSC(=S)N1CCOCC1)Nc1nc2c(s1)CCCC2	> 100 µM (inactive)	> 100 µM (inactive)	> 100 µM (inactive)	50.1 µM (inactive)	> 100 µM (inactive)	30.1 µM (inactive)	> 100 µM (inactive)	–	–
C=CCC1(C)CCCCC1(O)C[S+]([O-])c1ccccc1 (stereo not given)	> 100 µM (inactive)	> 100 µM (inactive)	> 100 µM (inactive)	–	–	> 100 µM (inactive)	> 100 µM (inactive)	> 100 µM (inactive)	> 100 µM (inactive)
CCOc1ccc(N2C(=O)C3c4[nH]c5ccccc5c4C4CCC(C(C)(C)C)CC4C3C2=O)cc1 (stereo not given)	88.9 µM (inactive)	> 100 µM (inactive)	77.8 µM (inactive)	> 100 µM (inactive)	> 100 µM (inactive)	50 µM (inactive)	90.2 µM (inactive)	–	> 100 µM (inactive)
C=C[C@@H](C)[C@]1(C(=O)OC)CCCC12OCCO2	> 100 µM (inactive)	39.3 µM (inactive)	> 100 µM (inactive)	> 100 µM (inactive)	> 100 µM (inactive)	> 100 µM (inactive)	–	–	> 100 µM (inactive)
N#CCCN(CCC#N)c1ccc(/C=N\c2nc(-c3ccccc3)cs2)cc1	> 100 µM (inactive)	> 100 µM (inactive)	> 100 µM (inactive)	56.8 µM (inactive)	> 100 µM (inactive)	73.3 µM (inactive)	> 100 µM (inactive)	> 100 µM (inactive)	–
COc1cc(O)c(C(=O)CC(C)=O)c(OC)c1	> 100 µM (inactive)	> 100 µM (inactive)	> 100 µM (inactive)	> 100 µM (inactive)	> 100 µM (inactive)	> 100 µM (inactive)	> 100 µM (inactive)	–	> 100 µM (inactive)
O=C1C[C@@H]2C(COC(=O)c3ccccc3)N(OCc3ccccc3)C[C@@H]2O1 (stereo not given in full)	> 100 µM (inactive)	> 100 µM (inactive)	> 100 µM (inactive)	–	> 100 µM (inactive)	> 100 µM (inactive)	> 100 µM (inactive)	> 100 µM (inactive)	> 100 µM (inactive)
CCCCCCCCCCCCC(SCCNC(=O)CCNC(=O)C(O)C(C)(C)COP(=O)(O)OP(=O)(O)OCC1OC(n2cnc3c(N)ncnc32)C(O)C1OP(=O)(O)O)C(=O)NCC(N)=O (stereo not given)	> 100 µM (inactive)	41.3 µM (inactive)	> 100 µM (inactive)	–	> 100 µM (inactive)	95.1 µM (inactive)	–	> 100 µM (inactive)	37.8 µM (inactive)
O=S(=O)(O)SC/C=C\CSS(=O)(=O)O	> 100 µM (inactive)	> 100 µM (inactive)	> 100 µM (inactive)	> 100 µM (inactive)	> 100 µM (inactive)	> 100 µM (inactive)	> 100 µM (inactive)	> 100 µM (inactive)	> 100 µM (inactive)
O=[N+]([O-])c1cccc(Nc2nc(Cl)nc(Cl)n2)c1	> 100 µM (inactive)	> 100 µM (inactive)	> 100 µM (inactive)	> 100 µM (inactive)	> 100 µM (inactive)	–	> 100 µM (inactive)	> 100 µM (inactive)	–
O=C(NC1CCCCC1)NS(=O)(=O)c1ccc2c(c1)CCC2 [GLYHEXAMIDE]	> 100 µM (inactive)	–	–	> 100 µM (inactive)	–	> 100 µM (inactive)	–	> 100 µM (inactive)	> 100 µM (inactive)
Oc1ccc2c(c1)CC[N+]1=C2CCC2CCCC21 (stereo not given) [QUINDONIUM BROMIDE]	> 100 µM (inactive)	> 100 µM (inactive)	–	–	> 100 µM (inactive)	> 100 µM (inactive)	–	–	–
CCC1(O)C(=O)OCc2c1cc1n(c2=O)Cc2cc3c(N)cccc3nc2-1 (stereo not given) [RS-9-Aminocamptothecin]	0.859 µM (active)	< 0.01 µM (active)	0.132 µM (active)	0.145 µM (active)	0.341 µM (active)	< 0.0104 µM (active)	0.995 µM (active)	0.0471 µM (active)	0.0424 µM (active)
